Test results published in the NIST ThermoML archive (doi:10.1016/j.jct.2008.05.006).
“And” between values parts separate entries of the source, which are not always exact repeats. Equal entries are not always repeated.

Legend:
[1] = for vapor or sublimation pressure: Calculated from knudsen effusion weight loss; for Triple point temperature: DTA
[2] = Molar enthalpy of transition or fusion; settings: Crystal 3; DSC
[3] = molar heat capacity at constant pressure; settings: 101.33 kPa, Small sample (50 mg) DSC

O=C1NC(=O)C(=O)N1 [parabanic acid]
Settings	molar heat capacity at constant pressure [J/K/mol]	vapor or sublimation pressure
[1], 381.17 K, Crystal 3	–	0.0001133 kPa and 0.0001078 kPa
[1], 383.17 K, Crystal 3	–	0.0001373 kPa and 0.0001334 kPa
[1], 385.18 K, Crystal 3	–	0.0001672 kPa and 0.0001691 kPa and 0.000159 kPa
[1], 387.17 K, Crystal 3	–	0.0001972 kPa [middle of 4 runs]
[1], 389.17 K, Crystal 3	–	0.0002355 kPa and 0.0002336 kPa and 0.0002271 kPa
[1], 391.18 K, Crystal 3	–	0.000285 kPa and 0.000287 kPa
[1], 393.18 K, Crystal 2	–	0.0003353 kPa and 0.0003334 kPa
[1], 395.17 K, Crystal 2	–	0.0004133 kPa and 0.0004042 kPa
[1], 397.16 K, Crystal 2	–	0.0004877 kPa
[1], 397.18 K, Crystal 2	–	0.000484 kPa
[1], 399.17 K, Crystal 2	–	0.0005715 kPa
[1], 401.18 K, Crystal 2	–	0.0006635 kPa
[1], 403.17 K, Crystal 2	–	0.0008169 kPa
[1], 405.2 K, Crystal 2	–	0.0009469 kPa and 0.0009581 kPa
[1], 406.17 K, Crystal 2	–	0.001047 kPa and 0.001039 kPa
[3], 263.15 K, Crystal 3	153.78	–
[3], 265.15 K, Crystal 3	154.68	–
[3], 270.15 K, Crystal 3	157.16	–
[3], 273.15 K, Crystal 3	158.53	–
[3], 275.15 K, Crystal 3	159.48	–
[3], 280.15 K, Crystal 3	161.53	–
[3], 285.15 K, Crystal 3	163.59	–
[3], 290.15 K, Crystal 3	165.7	–
[3], 295.15 K, Crystal 3	167.6	–
[3], 300.15 K, Crystal 3	169.81	–
[3], 305.15 K, Crystal 3	172.08	–
[3], 310.15 K, Crystal 3	174.5	–
[3], 315.15 K, Crystal 3	177.24	–
[3], 320.15 K, Crystal 3	179.33	–
[3], 325.15 K, Crystal 3	180.62	–
[3], 330.15 K, Crystal 3	182.52	–
[3], 335.15 K, Crystal 3	184.84	–
[3], 340.15 K, Crystal 3	187.21	–
[3], 345.15 K, Crystal 3	189.26	–
[3], 350.15 K, Crystal 3	191.69	–
[3], 355.15 K, Crystal 3	193.8	–
[3], 360.15 K, Crystal 3	196.01	–
[3], 365.15 K, Crystal 3	197.59	–
[3], 370.15 K, Crystal 3	200.07	–
[3], 375.15 K, Crystal 3	201.42	–
[3], 380.15 K, Crystal 3	203.59	–
[3], 400.15 K, Crystal 2	211.5	–
[3], 405.15 K, Crystal 2	213.6	–
[3], 410.15 K, Crystal 2	215.93	–
[3], 415.15 K, Crystal 2	216.68	–
[3], 420.15 K, Crystal 2	218.83	–
[3], 425.15 K, Crystal 2	220.28	–
[3], 430.15 K, Crystal 2	222.89	–
[3], 435.15 K, Crystal 2	225.62	–
[3], 440.15 K, Crystal 2	227.43	–
[3], 445.15 K, Crystal 2	229.93	–
[3], 450.15 K, Crystal 2	232.06	–
[3], 455.15 K, Crystal 2	234.43	–
[3], 460.15 K, Crystal 2	236.96	–
[3], 465.15 K, Crystal 2	239.26	–
[3], 470.15 K, Crystal 2	241.31	–
[3], 473.15 K, Crystal 2	243.13	–

[1]
Settings	Triple point temperature [K]
Crystal 1	520
Crystal 2	509.8
Crystal 3	392.3

Settings	Molar enthalpy of transition or fusion [kcal/mol]
[2]	0.502
